Assay results published in patent publication US20230051589A1, “COMPOUNDS AND COMPOSITIONS FOR TREATING CONDITIONS ASSOCIATED WITH NLRP ACTIVITY” (Novartis AG, priority 2018, published 2023).
pIC50: −log10 of the molar value.

System: IL-1β production in PMA-differentiated THP-1 cells
Assay: IL-1β production in PMA-differentiated THP-1 cells stimulated with gramicidin (hTHP-1 assay, 2% fetal bovine serum; Procedures 1-3)
Assay type: cell-based, human
Settings: Homo sapiens, THP-1, hTHP-1 assay containing 2% fetal bovine serum, Table B2, class symbols; read-out: IC50
In short: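 PMA-primed THP-1 cells (20 ng/ml PMA, 16-18 h) in RPMI with 2% FBS were pre-incubated with compounds for 1 h, from 100 μM downward in 3-fold steps (0.37% DMSO final), then stimulated with 5 μM gramicidin for 2 h. IL-1β in the supernatant was quantified by HTRF.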

| SMILES | pIC50 |
| --- | --- |
| NS(=O)(=NC(=O)Nc1c2c(cc3c1CCC3)CCC2)c1cccc(CN2CCOCC2)c1 (single isomer, unassigned) [Example 550, (R) or (S)-N′-((1,2,3,5,6,7-hexahydro-s-indacen-4-yl)carbamoyl)-3-(morpholinomethyl) benzenesulfonimidamide] | 5.30 to 6.00 |

Same assay, conditions: Homo sapiens, THP-1, hTHP-1 assay containing 2% fetal bovine serum, Table B2, given as bound; read-out: IC50

| SMILES | pIC50 |
| --- | --- |
| NS(=O)(=NC(=O)Nc1c2c(cc3c1CCC3)CCC2)c1cccc(CN2CCOCC2)c1 (single isomer, unassigned) [Example 551, (S) or (R)-N′-((1,2,3,5,6,7-hexahydro-s-indacen-4-yl)carbamoyl)-3-(morpholinomethyl) benzenesulfonimidamide] | < 4.52 |
| CC(C)(O)c1ncc(S(N)(=O)=NC(=O)Nc2cc3c(c4c2CCC4=O)CCC3)s1 (single isomer, unassigned) [Example 564, (S) or (R)-2-(2-hydroxypropan-2-yl)-N′-((1-oxo-1,2,3,6,7,8-hexahydro-as-indacen-4-yl)carbamoyl) thiazole-5-sulfonimidamide] | < 4.52 |

Same assay, conditions: hTHP-1 assay containing 2% fetal bovine serum, Table B2, class symbols; read-out: IC50

| SMILES | pIC50 |
| --- | --- |
| CC(C)(O)c1cc(F)c(S(N)(=O)=NC(=O)Nc2c3c(cc4c2C(=O)CC4)CCC3)s1 (single isomer, unassigned) [Example 538, (S) or (R)-3-fluoro-5-(2-hydroxypropan-2-yl)-N′-((3-oxo-1,2,3,5,6,7-hexahydro-s-indacen-4-yl)carbamoyl) thiophene-2-sulfonimidamide] | 4.52 to 5.30 |
| CC(C)(O)c1cc(F)c(S(N)(=O)=NC(=O)Nc2c3c(cc4c2C(=O)CC4)CCC3)s1 (single isomer, unassigned) [Example 539, (R) or (S)-3-fluoro-5-(2-hydroxypropan-2-yl)-N′-((3-oxo-1,2,3,5,6,7-hexahydro-s-indacen-4-yl)carbamoyl) thiophene-2-sulfonimidamide] | 6.70 to 7.40 |
| CC(C)(O)c1csc(S(N)(=O)=NC(=O)Nc2c3c(c(C#N)c4c2CCC4)CCC3)n1 (single isomer, unassigned) [Example 540, (S) or (R)-N′-((8-cyano-1,2,3,5,6,7-hexahydro-s-indacen-4-yl)carbamoyl)-4-(2-hydroxypropan-2-yl)thiazole-2-sulfonimidamide] | 5.30 to 6.00 |
| CC(C)(O)c1csc(S(N)(=O)=NC(=O)Nc2c3c(c(C#N)c4c2CCC4)CCC3)n1 (single isomer, unassigned) [Example 541, (R) or (S)-N′-((8-cyano-1,2,3,5,6,7-hexahydro-s-indacen-4-yl)carbamoyl)-4-(2-hydroxypropan-2-yl)thiazole-2-sulfonimidamide] | 6.70 to 7.40 |
| CC(C)(O)c1nc(CO)c(S(N)(=O)=NC(=O)Nc2c3c(cc4c2CCC4)CCC3)s1 (single isomer, unassigned) [Example 542, (S) or (R)-N′-((1,2,3,5,6,7-hexahydro-s-indacen-4-yl)carbamoyl)-4-(hydroxymethyl)-2-(2-hydroxypropan-2-yl)thiazole-5-sulfonimidamide] | 5.30 to 6.00 |
| CC(C)(O)c1nc(CO)c(S(N)(=O)=NC(=O)Nc2c3c(cc4c2CCC4)CCC3)s1 (single isomer, unassigned) [Example 543, (R) or (S)-N′-((1,2,3,5,6,7-hexahydro-s-indacen-4-yl)carbamoyl)-4-(hydroxymethyl)-2-(2-hydroxypropan-2-yl)thiazole-5-sulfonimidamide] | 7.40 to 8.10 |
| CC(C)(O)c1ccc(S(N)(=O)=NC(=O)Nc2c3c(c(C#N)c4c2CCC4)CCC3)cn1 (single isomer, unassigned) [Example 544, (S) or (R)-N′-((8-cyano-1,2,3,5,6,7-hexahydro-s-indacen-4-yl)carbamoyl)-6-(2-hydroxypropan-2-yl)pyridine-3-sulfonimidamide] | 4.52 to 5.30 |
| CC(C)(O)c1ccc(S(N)(=O)=NC(=O)Nc2c3c(c(C#N)c4c2CCC4)CCC3)cn1 (single isomer, unassigned) [Example 545, (R) or (S)-N′-((8-cyano-1,2,3,5,6,7-hexahydro-s-indacen-4-yl)carbamoyl)-6-(2-hydroxypropan-2-yl)pyridine-3-sulfonimidamide] | 6.70 to 7.40 |
| NS(=O)(=NC(=O)Nc1c2c(cc3c1CC3)CCC2)c1cnn2c1OCCC2 (single isomer, unassigned) [Example 546, (R) or (S)-N′-((2,4,5,6-tetrahydro-1H-cyclobuta[f]inden-3-yl)carbamoyl)-6,7-dihydio-5H-pyrazolo[5,1-b][1,3]oxazine-3-suIfonimidamide] | 6.00 to 6.70 |
| NS(=O)(=NC(=O)Nc1c2c(cc3c1CC3)CCC2)c1cnn2c1OCCC2 (single isomer, unassigned) [Example 547, (S) or (R)-N′-((2,4,5,6-tetrahydro-1H-cyclobuta[f]inden-3-yl)carbamoyl)-6,7-dihydio-5H-pyrazolo[5,1-b][1,3]oxazine-3-sulfonimidamide] | 5.30 to 6.00 |
| CC(C)n1nc(S(N)(=O)=NC(=O)Nc2c3c(c(C#N)c4c2CCC4)CCC3)cc1CO (single isomer, unassigned) [Example 548, (R) or (S)-N′-((8-cyano-1,2,3,5,6,7-hexahydro-s-indacen-4-yl)carbamoyl)-5-(hydroxymethyl)-1-isopropyl-1H-pyrazole-3-sulfonimidamide] | 6.70 to 7.40 |
| CC(C)n1nc(S(N)(=O)=NC(=O)Nc2c3c(c(C#N)c4c2CCC4)CCC3)cc1CO (single isomer, unassigned) [Example 549, (S) or (R)-N′-((8-cyano-1,2,3,5,6,7-hexahydro-s-indacen-4-yl)carbamoyl)-5-(hydroxymethyl)-1-isopropyl-1H-pyrazole-3-sulfonimidamide] | 4.52 to 5.30 |
| CC(C)(O)c1cc(S(N)(=O)=NC(=O)Nc2c3c(cc4c2CCC4)CCC3)sc1-c1ccccc1 (single isomer, unassigned) [Example 552, (R) or (S)-N′-((1,2,3,5,6,7-hexahydro-s-indacen-4-yl)(2-4-carbamoyl)-hydroxypropan-2-yl)-5-phenylthiophene-2-sulfonimidamide] | 6.70 to 7.40 |
| CC(C)(O)c1cc(S(N)(=O)=NC(=O)Nc2c3c(cc4c2CCC4)CCC3)sc1-c1ccccc1 (single isomer, unassigned) [Example 553, (S) or (R)-N′-((1,2,3,5,6,7-hexahydro-s-indacen-4-yl)carbamoyl)-(4-2-hydroxypropan-2-yl)-5-phenylthiophene-2-sulfonimidamide] | 4.52 to 5.30 |
| CC(C)c1cc(S(N)(=O)=NC(=O)Nc2c3c(cc4c2CCC4)CCC3)c(F)cn1 (single isomer, unassigned) [Example 554, (S) or (R)-5-fluoro-N′-((1,2,3,5,6,7-hexahydro-s-indacen-4-yl)carbamoyl)-2-isopropylpyridine-4-sulfonimidamide] | 4.52 to 5.30 |
| CC(C)c1cc(S(N)(=O)=NC(=O)Nc2c3c(cc4c2CCC4)CCC3)c(F)cn1 (single isomer, unassigned) [Example 555, (R) or (S)-5-fluoro-N′-((1,2,3,5,6,7-hexahydro-s-indacen-4-yl)carbamoyl)-2-isopropylpyridine-4-sulfonimidamide] | 6.00 to 6.70 |
| CC(C)(O)c1nc(S(N)(=O)=NC(=O)Nc2c3c(cc4c2CCC4)CCC3)cs1 (single isomer, unassigned) [Example 556, (S) or (R)-N′-((1,2,3,5,6,7-hexahydro-s-indacen-4-yl)carbamoyl)-2-(2-hydroxypropan-2-yl)thiazole-4-sulfonimidamide] | 4.52 to 5.30 |
| CC(C)(O)c1nc(S(N)(=O)=NC(=O)Nc2c3c(cc4c2CCC4)CCC3)cs1 (single isomer, unassigned) [Example 557, (R) or (S)-N′-((1,2,3,5,6,7-hexahydro-s-indacen-4-yl)cartoamoyl)-2-(2-hydroxypropan-2-yl)thiazole-4-sulfoni midamide] | 6.70 to 7.40 |
| CN1CCc2cc(S(N)(=O)=NC(=O)Nc3c4c(cc5c3CCC5)CCC4)sc2C1 (single isomer, unassigned) [Example 558, (R) or (S)-N′-((1,2,3,5,6,7-hexahydro-5-indacen-4-yl)carbamoyl)-6-methyl-4,5,6,7-tetrahydrothieno [2,3-c]pyridine-2-sulfonimidamide] | 6.70 to 7.40 |
| CN1CCc2cc(S(N)(=O)=NC(=O)Nc3c4c(cc5c3CCC5)CCC4)sc2C1 (single isomer, unassigned) [Example 559, (S) or (R)-N′-((1,2,3,5,6,7-hexahydro-s-indacen-4-yl)carbamoyl)-6-methyl-4,5,6,7-tetrahydrothieno[2,3-c]pyridine-2-sulfonimidamide] | 5.30 to 6.00 |
| CC(C)(O)c1csc(S(N)(=O)=NC(=O)Nc2c3c(cc4c2CC4)CCC3)c1 (single isomer, unassigned) [Example 560, (R) or (S)-4-(2-hydroxypropan-2-N′-((2,4,5,6-tetrahydro-1H-cyclobuta[f]inden-3 - y])carbamoyl) thiophene-2-sulfonimidamide] | 7.40 to 8.10 |
| CC(C)(O)c1csc(S(N)(=O)=NC(=O)Nc2c3c(cc4c2CC4)CCC3)c1 (single isomer, unassigned) [Example 561, (S) or (R)-4-(2-hydroxypropan-2-N′-((2,4,5,6-tetrahydro-1H-cyclobuta[f]inden-3 - y])carbamoyl) thiophene-2-sulfonimidamide] | 6.00 to 6.70 |
| Cc1c(C2CC2)cc2c(c1NC(=O)N=S(N)(=O)c1cnc(C(C)(C)O)s1)CCC2 (single isomer, unassigned) [Example 562, (S) or (R)-N′-((6-cyclopropyl-5-methyl-2,3-dihydro-1H-inden-4-yl)carbamoyl)-2-(2-hydroxypropan-2-yl)thiazole-5-sulfonimidamide] | 5.30 to 6.00 |
| Cc1c(C2CC2)cc2c(c1NC(=O)N=S(N)(=O)c1cnc(C(C)(C)O)s1)CCC2 (single isomer, unassigned) [Example 563, (R) or (S)-N′-((6-cyclopropyl-5-methyl-2,3-dihydro-1H-inden-4-yl)carbamoyl)-2-(2-hydroxypropan-2-yl)thiazole-5-sulfonimidamide] | 6.70 to 7.40 |
